Results published in US7452865B2, “Antagonistic analogs of GH RH (2003)” (The Administrare's of the Tulane Educational Fund, priority 2004, dated 2008).
Where “and” joins values, the source holds several entries; their conditions need not be identical. Equal values may be shown once. Square brackets hold non-standard residues; d marks the D form. Peptide text beside a SMILES is read from it. * marks the point of attachment. Phe(4-Cl) = N[C@@H](Cc1ccc(Cl)cc1)C(=O)O; hArg = N=C(N)NCCCC[C@H](N)C(=O)O; Nle = CCCC[C@H](N)C(=O)O; Abu = CC[C@H](N)C(=O)O; PhAc = O=C(Cc1ccccc1)*

System: hGH-RH(1-29)NH2 induced GH release
Assay: Inhibition of GH release in superfused rat pituitary system
Assay type: cell-based
Conditions: antagonist 30 nM; for GH response (% of control) 0 min: 1 nM hGH-RH(1-29)NH2 at 0 min; for GH response (% of control) 30 min: 1 nM hGH-RH(1-29)NH2 at 30 min; for GH response (% of control) 60 min: 1 nM hGH-RH(1-29)NH2 at 60 min; for GH response (% of control) 90 min: 1 nM hGH-RH(1-29)NH2 at 90 min; for GH response (% of control) 120 min: 1 nM hGH-RH(1-29)NH2 at 120 min
Method: The analogs were tested in vitro in a test described earlier (S. Vigh and A. V Schally, Peptides 5:241-[…], 1984) with modification (Z. Rekasi and A. V. Schally, P.N.A.S. 90:2146-2149, 1993).
Briefly, the cells are preincubated with peptides for 9 minutes (3 mL) at various concentrations. Immediately after the incubation, 1 nM hGH-RH(1-29)NH2 is administered for 3 minutes (1 mL) 10 minute response). To check the duration of the antagonistic effect of the analogue, 1 nM hGH-RH(1-29)NH2 is applied 30, 60, 90, and 120 minutes later for 3 minutes [30, 60, 90, 120 min responses]. Net integral values of the GH responses are evaluated. GH responses are compared to and expressed as percent of the original GH response induced by 1 nM GH-RH(1-29)NH2 The effect of the new antagonists are compared to that of [Ac-Tyr^1, D-Arg^2]hGH-RH(1-29)NH2, the “Standard antagonist”.
Rat GH levels in aliquots of undiluted and diluted superfusion samples were measured by double-antibody radioimmunoassay using materials supplied by the National Hormone and Pituitary Program, Baltimore, Md. The results of RIA were analyzed with a computer program developed in our institute (V. Csernus and A. V. Schally, in Neuroendocrine Research Methods, Harwood Academic (Greenstein, B. D. ed., London, pp. 71-109, 1991), hereby incorporated by reference.

Compound: CCCC[C@H](NC(=O)[C@@H](NC(=O)[C@H](CC(=O)O)NC(=O)[C@H](CCC(N)=O)NC(=O)[C@H](CC(C)C)NC(=O)[C@H](CC(C)C)NC(=O)[C@H](CCCCN)NC(=O)[C@H](CCCNC(=N)N)NC(=O)[C@H](C)NC(=O)[C@H](CO)NC(=O)[C@H](CC(C)C)NC(=O)[C@H](CCC(N)=O)NC(=O)[C@H](CC)NC(=O)[C@H](CC(C)C)NC(=O)[C@@H](NC(=O)[C@H](CCCCNC(=N)N)NC(=O)[C@H](CCCNC(=N)N)NC(=O)[C@H](Cc1ccc(O)cc1)NC(=O)[C@H](CCCNC(=N)N)NC(=O)[C@H](CC(N)=O)NC(=O)[C@@H](NC(=O)[C@H](Cc1ccc(Cl)cc1)NC(=O)[C@@H](NC(=O)[C@H](C)NC(=O)[C@H](CC(=O)O)NC(=O)[C@@H](CCCNC(=N)N)NC(=O)[C@H](Cc1ccc(O)cc1)NC(=O)Cc1ccccc1)[C@@H](C)CC)[C@@H](C)O)C(C)C)[C@@H](C)CC)C(=O)N[C@H](CCCNC(=N)N)C(=O)N[C@@H](CCCCNC(=N)N)C(N)=O [Peptide 43, [PhAc-Tyr^1, D-Arg^2, Phe(pC)^6, Arg^9, Har^12, Abu^15, Nle^27, D-Arg^28, Har^29]hGH-RH(1-29)NH2] (PhAc-Y[dR]DAI[Phe(4-Cl)]TNRYR[hArg]VL[Abu]QLSARKLLQDI[Nle][dR][hArg]-NH2)
- GH response (% of control) 0 min: 82 % of control
- GH response (% of control) 30 min: 74 % of control
- GH response (% of control) 60 min: 102 % of control
- GH response (% of control) 90 min: 72 % of control
- GH response (% of control) 120 min: 51 % of control

Compound: [PhAc-Tyr^1, D-Arg^2, Phe(pCl)^6, Har^9, Tyr(Me)^10, Har^11, Abu^15, Nle^27, D-Arg^28, Har^29]hGH-RH(1-29)NH2 [Peptide 63]
- GH response (% of control) 0 min: 53 % of control
- GH response (% of control) 30 min: 47 % of control
- GH response (% of control) 60 min: 49 % of control
- GH response (% of control) 90 min: 51 % of control

Compound: [CH3(CH2)14CO-Phe^0, D-Arg^2, Phe(pCl)^6, Arg^9, Abu^15, Nle^27, D-Arg^28, Har^29]hGH-RH(1-29)NH2 [Peptide 16]
- GH response (% of control) 0 min: 40 % of control
- GH response (% of control) 30 min: 62 % of control
- GH response (% of control) 60 min: 78 % of control
- GH response (% of control) 90 min: 73 % of control
- GH response (% of control) 120 min: 61 % of control

Compound: [CH3(CH2)10CO-Tyr^1, D-Arg^2, Phe(pCl)^6, Arg^9, Abu^15, Nle^27, D-Arg^28, Har^29]hGH-RH(1-29)NH2 [Peptide 8]
- GH response (% of control) 0 min: 37 % of control
- GH response (% of control) 30 min: 31 % of control
- GH response (% of control) 60 min: 48 % of control
- GH response (% of control) 90 min: 44 % of control
- GH response (% of control) 120 min: 40 % of control

Compound: [PhAc-Tyr^1, D-Arg^2, Phe(pCl)^6, Har^9, Tyr(Me)^10, Amp^11, Abu^15, Nle^27, D-Arg^28, Har^29]hGH-RH(1-29)NH2 [Peptide 64]
- GH response (% of control) 0 min: 59 % of control
- GH response (% of control) 30 min: 54 % of control
- GH response (% of control) 60 min: 70 % of control
- GH response (% of control) 90 min: 50 % of control
- GH response (% of control) 120 min: 56 % of control

Compound: [Ipa-Tyr^1, D-Arg^2, Phe(pCl)^6, Har^9, Tyr(Me)^10, Abu^15, Nle^27, D-Arg^28, Har^29, Har^30]hGH-RH(1-30)NH2 [Peptide 55]
- GH response (% of control) 0 min: 93 % of control
- GH response (% of control) 30 min: 63 % of control
- GH response (% of control) 60 min: 96 % of control
- GH response (% of control) 90 min: 61 % of control
- GH response (% of control) 120 min: 93 % of control

Compound: [PhAc-Tyr^1, D-Arg^2, Phe(pCl)^6, Har^9, Tyr(Me)^10, Abu^15, Nle^27, D-Arg^28, Agm^29]hGH-RH(1-29) [Peptide 52]
- GH response (% of control) 0 min: 86 % of control
- GH response (% of control) 30 min: 13 % of control
- GH response (% of control) 60 min: 45 % of control
- GH response (% of control) 90 min: 26 % of control
- GH response (% of control) 120 min: 55 % of control

Compound: [PhAc-Tyr^1, D-Arg^2, Phe(pCl)^6, Har^9, Tyr(Me)^10, Abu^15, Nle^27, D-Arg^28, Har^29, Agm^30]hGH-RH(1-30) [Peptide 60]
- GH response (% of control) 0 min: 73 % of control and 87 % of control
- GH response (% of control) 30 min: 27 % of control and 29 % of control
- GH response (% of control) 60 min: 34 % of control and 65 % of control
- GH response (% of control) 90 min: 56 % of control and 36 % of control
- GH response (% of control) 120 min: 42 % of control and 63 % of control

Compound: [PhAc-Arg^0, D-Arg^2, Phe(pCl)^6, Arg^9, Abu^15, Nle^27, D-Arg^28, Har^29]hGH-RH(1-29)NH2 [Peptide 18]
- GH response (% of control) 0 min: 21 % of control
- GH response (% of control) 30 min: 71 % of control
- GH response (% of control) 60 min: 61 % of control
- GH response (% of control) 90 min: 75 % of control
- GH response (% of control) 120 min: 63 % of control

Compound: [HOOC(CH2)14CO-Tyr^1, D-Arg^2, Phe(pCl)^6, Arg^9, Abu^15, Nle^27, D-Arg^28, Har^29]hGH-RH(1-29)NH2 [Peptide 13]
- GH response (% of control) 0 min: 87 % of control
- GH response (% of control) 30 min: 77 % of control
- GH response (% of control) 60 min: 76 % of control
- GH response (% of control) 90 min: 71 % of control
- GH response (% of control) 120 min: 73 % of control

Compound: [PhAc-Tyr^1, D-Arg^2, Phe(pCl)^6, Arg^9, Abu^15, Nle^27, Har^28, D-Arg^29, hGH-RH(1-29)NH2 [Peptide 15]
- GH response (% of control) 0 min: 28 % of control
- GH response (% of control) 30 min: 13 % of control
- GH response (% of control) 60 min: 11 % of control
- GH response (% of control) 90 min: 36 % of control
- GH response (% of control) 120 min: 21 % of control

Compound: [PhAc-Tyr^1, D-Arg^2, Phe(pCl)^6, Abu^8, Arg^9, Abu^15, Nle^27, D-Arg^28, Har^29]hGH-RH(1-29)NH2 [Peptide 27]
- GH response (% of control) 0 min: 19 % of control
- GH response (% of control) 30 min: 15 % of control
- GH response (% of control) 60 min: 23 % of control
- GH response (% of control) 90 min: 23 % of control
- GH response (% of control) 120 min: 61 % of control

Compound: [Hca-Tyr^1, D-Arg^2, Phe(pCl)^6, Har, Tyr(Me)^10, Abu^15, Nle^27, D-Arg^28, Har^29, Har^30]hGH-RH(1-30)NH2 [Peptide 53]
- GH response (% of control) 0 min: 43 % of control
- GH response (% of control) 30 min: 42 % of control
- GH response (% of control) 60 min: 40 % of control
- GH response (% of control) 90 min: 36 % of control
- GH response (% of control) 120 min: 46 % of control

Compound: [HOOC(CH2)4CO-Tyr^1, D-Arg^2, Phe(pCl)^6, Arg^9, Abu^15, Nle^27, D-Arg^28, Har^29]hGH-RH(1-29)NH2 [Peptide 3]
- GH response (% of control) 0 min: 52 % of control
- GH response (% of control) 30 min: 61 % of control
- GH response (% of control) 60 min: 56 % of control
- GH response (% of control) 90 min: 70 % of control
- GH response (% of control) 120 min: 149 % of control

Compound: [PhAc-Tyr^1, D-Arg^2, Phe(pCl)^6, Har^9, 3-Pal^10, Abu^15, Nle^27, D-Arg^28, Har^29]hGH-RH(1-29)NH2 [Peptide 40]
- GH response (% of control) 0 min: 42 % of control
- GH response (% of control) 30 min: 29 % of control
- GH response (% of control) 60 min: 26 % of control
- GH response (% of control) 90 min: 36 % of control
- GH response (% of control) 120 min: 30 % of control

Compound: [PhAc-Tyr^1, D-Arg^2, Phe(pCl)^6, Cit^8, Cit^9, Abu^15, Nle^27, Har^28, D-Arg^29]hGH-RH(1-29)NH2 [Peptide 24]
- GH response (% of control) 0 min: 56 % of control
- GH response (% of control) 30 min: 13 % of control
- GH response (% of control) 60 min: 18 % of control
- GH response (% of control) 90 min: 34 % of control
- GH response (% of control) 120 min: 60 % of control

Compound: [Hca-Tyr^1, D-Arg^2, Phe(pCl)^6, Har^9, Tyr(Me)^10, Abu^15, Nle^27, D-Arg^28, Har^29]hGH-RH(1-29)NH2 [Peptide 45]
- GH response (% of control) 0 min: 91 % of control and 100 % of control
- GH response (% of control) 30 min: 100 % of control
- GH response (% of control) 60 min: 100 % of control
- GH response (% of control) 90 min: 100 % of control
- GH response (% of control) 120 min: 99 % of control

Compound: [CH3(CH2)14CO-Tyr^1, D-Arg^2, Phe(pCl)^6, Arg^9, Abu^15, Nle^27, D-Arg^28, Har^29]hGH-RH(1-29)NH2 [Peptide 12]
- GH response (% of control) 0 min: 35 % of control
- GH response (% of control) 30 min: 30 % of control
- GH response (% of control) 60 min: 35 % of control
- GH response (% of control) 90 min: 51 % of control
- GH response (% of control) 120 min: 43 % of control

Compound: [CH3(CH2)4CO-Tyr^1, D-Arg^2, Phe(pCl)^6, Arg^9, Abu^15, Nle^27, D-Arg^28, Har^29]hGH-RH(1-29)NH2 [Peptide 2]
- GH response (% of control) 0 min: 18 % of control
- GH response (% of control) 30 min: 13 % of control
- GH response (% of control) 60 min: 18 % of control
- GH response (% of control) 90 min: 25 % of control
- GH response (% of control) 120 min: 51 % of control
